Tests used:
[1] = system: chronically corticosterone-administered model mice; assay: Repeated corticosterone administration, forced swim test; format: in vivo, mouse; conditions: male mice, corticosterone 20 mg/kg s.c. 21 days; single i.p. PA-915 30 mg/kg, ketamine 20 mg/kg, fluoxetine 20 mg/kg; 24 hours later
Experimental: Chronically corticosterone-administered model mice are model mice that mimic high plasma corticosterone levels associated with the hyperactivation of the hypothalamic-pituitary-adrenal system under pathological stress, and are generally used as depression model mice.
A vehicle (0.5% carboxymethylcellulose solution) or corticosterone (20 mg/kg) was subcutaneously administered (0.1 mL/10 g) to male C57BL/6J mice (6 weeks old) for 21 days. A vehicle (10% DMSO solution; dissolved in saline; n=11), PA-915 (30 mg/kg; n=13), ketamine (20 mg/kg; n=13) or fluoxetine (20 mg/kg; n=15) was intraperitoneally administered thereto (0.1 mL/10 g) 3 hours after administration on the 21st day. The mice were forced to swim for 6 minutes 24 hours later, and an immobility time was measured. Mice given the vehicle by repeated administration without repeated corticosterone administration were used as a control (n=11). The data was indicated by mean±standard error. **P<0.01 (One-way ANOVA followed by Tukey-Kramer test).
A vehicle (0.5% carboxymethylcellulose solution) or corticosterone (20 mg/kg) was subcutaneously administered (0.1 mL/10 g) to female C57BL/6J mice (9 weeks old) for 21 days. […] The mice were forced to swim for 6 minutes 24 hours later, and an immobility time was measured. […]

[2] = disclosed in Patent Literature 2 (WO 2019/065794); cited from earlier work
[3] = system: normal mice; assay: Light-dark test in normal mice; format: in vivo, mouse; conditions: normal male C57BL/6J mice, 30 mg/kg i.p., 60 min after administration, 10 min test
Experimental: The effects of PA-8 and PA-81004 on normal mice were evaluated by a light-dark test (test to measure spontaneous locomotion by exploiting the properties of mice to avoid light environments, and placing the mice in a light box and a dark box joined together (each 20 cm×20 cm, height: 30 cm); in this test, anxiety-like behavior is evaluated by measuring times spent in the light box and the dark box and the number of transitions between the light box and the dark box).
(§1) Male C57BL/6J mice (8 to 12 weeks old) were acclimatized to a laboratory for 60 minutes. Then, a vehicle (10% DMSO solution; dissolved in saline; n=13), PA-8 (30 mg/kg; n=12) or PA-81004 (30 mg/kg; n=12) was intraperitoneally administered thereto (0.1 mL/10 g). After a lapse of 60 minutes after administration, the test was conducted for 10 minutes. The results are shown in FIG. 2 (A: time spent in the light box, B: the number of transitions between the light and dark boxes; light box illuminance: 330 lx).
The effects of PA-9 and PA-915 on normal mice were evaluated by the light-dark test.
as §1, with “laboratory (illuminance: 330 lx)” for “laboratory”, “saline; n=12), PA-9” for “saline; n=13), PA-8”, “mg/kg; n=10)” for “mg/kg; n=12)”, “or PA-915” for “or PA-81004”, “FIG. 6” for “FIG. 2”

[4] = target: T1, PAC1 receptor (Homo sapiens, UniProt P41586); conditions: disclosed in Patent Literature 2 (WO 2019/065794); cited from earlier work
T1 sequence (P41586 21-468): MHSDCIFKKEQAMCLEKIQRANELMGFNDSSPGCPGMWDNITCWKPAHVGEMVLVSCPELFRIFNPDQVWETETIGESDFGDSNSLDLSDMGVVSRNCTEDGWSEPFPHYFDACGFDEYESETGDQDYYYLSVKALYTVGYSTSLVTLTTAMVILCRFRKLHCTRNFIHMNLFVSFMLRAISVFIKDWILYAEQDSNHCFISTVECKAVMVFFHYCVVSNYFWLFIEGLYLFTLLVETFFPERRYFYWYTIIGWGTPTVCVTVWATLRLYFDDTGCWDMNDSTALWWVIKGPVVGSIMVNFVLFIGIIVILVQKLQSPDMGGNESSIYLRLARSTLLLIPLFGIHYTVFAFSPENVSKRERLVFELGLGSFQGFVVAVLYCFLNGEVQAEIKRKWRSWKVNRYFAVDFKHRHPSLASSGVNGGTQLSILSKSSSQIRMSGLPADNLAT

[5] = system: normal mice; assay: Forced swim test in normal mice; format: in vivo, mouse; conditions: normal male C57BL/6J mice, 30 mg/kg i.p., 60 min after administration, 6 min swim
Experimental: The effects of PA-8 and PA-81004 on normal mice were evaluated by a forced swim test (test that exploits the switch of mice caused to swim in an inevitable environment from active escape behavior to a passive state of floating or immobility; in this test, depressive-like behavior is evaluated by placing the mice in an acrylic cylinder of 20 cm in diameter and 25 cm in height filled with water (water temperature: 25° C.) up to a depth of 15 cm, and measuring a passive floating or immobility time).
(§2) Male C57BL/6J mice (8 to 12 weeks old) were acclimatized to a laboratory (illuminance: 200 lx) for 60 minutes. Then, a vehicle (10% DMSO solution; dissolved in saline; n=9), PA-8 (30 mg/kg; n=9) or PA-81004 (30 mg/kg; n=9) was intraperitoneally administered thereto (0.1 mL/10 g). After a lapse of 60 minutes after administration, the mice were forced to swim for 6 minutes, and an immobility time was measured.
The effects of PA-9 and PA-915 on normal mice were evaluated by the forced swim test.
as §2, with “n=10), PA-9” for “n=9), PA-8”, “PA-915” for “PA-81004”

Row | Compound | effect on depressive-like behavior (forced swim test, immobility time) [1] | analgesic action [2] | pharmacological action in light-dark test (time in light box, transitions) [3] | PAC1 receptor antagonistic action [4] | pharmacological action in forced swim test (immobility time) [5]
1 | CNCCC(Oc1ccc(C(F)(F)F)cc1)c1ccccc1 (stereo not drawn) [fluoxetine] | exhibited no improving effect | – | – | – | –
2 | O=C(NCCc1c[nH]cn1)C1CC(=O)N(c2n[nH]c3ccccc23)C1 (stereo not drawn) [PA-9] | – | analgesic action | no pharmacological action | PAC1 receptor antagonistic action | no pharmacological action
3 | CNC1(c2ccccc2Cl)CCCCC1=O (stereo not drawn) [ketamine] | improved depressive-like behavior | – | – | – | –
4 | Nc1nc2c(c(=O)[nH]1)C(c1cccc(OC(F)(F)F)c1)CC(=O)N2 (stereo not drawn) [PA-81004, 2-Amino-5-(3-trifluoromethoxyphenyl)-5,8-dihydro-3H,6H-pyrido[2,3-d]pyrimidine-4,7-dione] | – | – | no pharmacological action | – | no pharmacological action
5 | C=CCOc1ccc(C2CC(=O)Nc3nc(N)[nH]c(=O)c32)cc1OC (stereo not drawn) [PA-8] | – | analgesic action | no pharmacological action | PAC1 receptor antagonistic action | no pharmacological action

From patent US12458643B2, “Antidepressant/anxiolytic drug in which PAC1 receptor antagonist is used” (KAGOSHIMA UNIVERSITY, priority 2020, dated 2025)
